The source of these data is patent US7560476B2, “Microbicidal composition” (Rohm and Haas Company, priority 2003, dated 2009).

One test relates to P. aeruginosa 9027. As to the kind of experiment: Synergy test, microtiter plate high resolution MIC assay, M9GY medium. It counts as cell-based, Pseudomonas aeruginosa.
For another test, the system named is S. aureus 6538. The description is as above. Format: cell-based, Staphylococcus aureus. As to the method:
(§1) Synergism was determined by an industrially accepted method described by Kull, F. C.; Eisman, P. C.; Sylwestrowicz, H. D. and Mayer, R. L., in Applied Microbiology 9:538-541 (1961), using the ratio determined by the formula: Qa/QA+Qb/QB=Synergy Index (“SI”) wherein: • QA=concentration of compound A (first component) in ppm, acting alone, which produced an end point (MIC of Compound A). • Qa=concentration of compound A in ppm, in the mixture, which produced an end point. • QB=concentration of compound B (second component) in ppm, acting alone, which produced an end point (MIC of Compound B). • Qb=concentration of compound B in ppm, in the mixture, which produced an end point.
(§2) When the sum of Qa/QA and Qb/QB is greater than one, antagonism is indicated. […] The lower the SI, the greater the synergy shown by that particular mixture. The minimum inhibitory concentration (MIC) of a microbicide is the lowest concentration tested under a specific set of conditions that prevents the growth of added microorganisms.
(§3) Synergy tests were conducted using standard microtiter plate assays with media designed for optimal growth of the test microorganism. Minimal salt medium supplemented with 0.2% glucose and 0.1% yeast extract (M9GY medium) was used for testing bacteria; Potato Dextrose Broth (PDB medium) was used for testing yeast and mold. In this method, a wide range of combinations of microbicides was tested by conducting high resolution MIC assays in the presence of various concentrations of MI. High resolution MICs were determined by adding varying amounts of microbicide to one column of a microtitre plate and doing subsequent […] dilutions using an automated liquid handling system to obtain a series of endpoints ranging from 2 ppm to 10,000 ppm active ingredient. The synergy of the combinations of the present invention was determined against two bacteria, Staphylococcus aureus (S. aureus—ATCC #6538) or Pseudomonas aeruginosa (P. aeruginosa—ATCC #15442), a yeast, Candida albicans (C. albicans—ATCC 10231), and a mold, Aspergillus niger (A. niger—ATCC 16404). […]

Another test relates to C. albicans 10231. As to the kind of experiment: Synergy test, microtiter plate high resolution MIC assay, PDB medium. Format: cell-based, Candida albicans. As to the method:
as §1, §2, §3

For another test, the system named is A. niger 16404. Described as above. It counts as cell-based, Aspergillus niger. As to the method:
as §1, §2, §3

Test [1] relates to microorganisms isolated from contaminated paint. As to the kind of experiment: Testing of synergistic combinations in paint (repeated inoculation). Format: cell-based. The conditions noted are these: paint pH 8.5-8.8. As to the method: A paint formulation having a pH of 8.5-8.8 was prepared from an acrylic binder, cellulosic thickener, kaolin, additives for formulation, and water. Fifty grams of the paint samples are inoculated repeatedly with microorganisms isolated from contaminated paint, with rising concentrations of inoculum. This treatment is carried out once a week. Six days after each inoculation, the surviving microorganisms are evaluated in each sample by applying onto nutrient media. These streak-outs are assessed after an incubation time of up to seven days (at 27±2° C. and 85-95% relative atmospheric humidity). An unpreserve sample of the system to be examined is used to check the susceptibility to the growth of microorganisms. Five inoculation cycles are carried out, thus leading to a test duration of six weeks. The rating scale for evaluation microbial growth is as follows: […]

Like-named read-outs stand apart in the source and are kept apart here.

`CNC(=O)c1ccccc1SSc1ccccc1C(=O)NC` [DTBMA, 2,2′-dithiobis(N-methylbenzamide)]: the MIC was 1000 µg/mL in the test with P. aeruginosa 9027 (Pseudomonas aeruginosa, 9027, M9GY, 72 hours, read-out: QDTBMA (MIC of DTBMA acting alone)); 40 µg/mL in the test on S. aureus 6538 (Staphylococcus aureus, 6538, M9GY, 24 hours, read-out: QDTBMA (MIC of DTBMA acting alone)); 40 µg/mL with C. albicans 10231 (Candida albicans, 10231, PDB, 48 hours, read-out: QDTBMA (MIC of DTBMA acting alone)); 1500 µg/mL with A. niger 16404 (Aspergillus niger, 16404, PDB, 72 hours, read-out: QDTBMA (MIC of DTBMA acting alone)). The “growth rating >5 inoc.” value in test [1] (0.0 ppm MI, 152.0 ppm DTBMA (0:100)) turned out to be 3; in test [1] (0.0 ppm MI, 228.0 ppm DTBMA (0:100)), 3.
For the compound `Cn1sc2ccccc2c1=O` [MBI, 2-methylbenzisothiazolone], the MIC was determined as 200 µg/mL with P. aeruginosa 9027 (Pseudomonas aeruginosa, 9027, M9GY, 72 hours, read-out: QMBI (MIC of MBI acting alone)); 8 µg/mL with S. aureus 6538 (Staphylococcus aureus, 6538, M9GY, 24 hours, read-out: QMBI (MIC of MBI acting alone)); 8 µg/mL in the test with C. albicans 10231 (Candida albicans, 10231, PDB, 48 hours, read-out: QMBI (MIC of MBI acting alone)); 60 µg/mL in the test on A. niger 16404 (Aspergillus niger, 16404, PDB, 72 hours, read-out: QMBI (MIC of MBI acting alone)).
Regarding `Cn1sccc1=O` [MI, 2-methyl-4-isothiazolin-3-one], the MIC in the test with P. aeruginosa 9027 (Pseudomonas aeruginosa, 9027, 72 h, read-out: QMI (MIC of MI acting alone)) was found to be 25 µg/mL; with S. aureus 6538 (Staphylococcus aureus, 6538, 24 h, read-out: QMI (MIC of MI acting alone)), 60 µg/mL; in the test with C. albicans 10231 (Candida albicans, 10231, 48 h, read-out: QMI (MIC of MI acting alone)), 175 µg/mL; with A. niger 16404 (Aspergillus niger, 16404, 72 h, read-out: QMI (MIC of MI acting alone)), 400 µg/mL. In test [1] (150.0 ppm MI, 0.0 ppm DTBMA (100:0)), the “growth rating >5 inoc.” value is reported as 2/1.
